Laboratory results taken from US20200239412A1, “NEW DERIVATES OF DHAA WITH ELECTROSTATIC TUNING” (priority 2017, published 2020).
Several values for one entry are separate records, joined by “and”; a condition that tells them apart may be missing. Identical values can stand only once. Counter-ions that a name gives are not always drawn. Like-named read-outs stand apart in the source and are kept apart here.

Legend:
[1] = target: T1, 3R Shaker Kv channel (M356R/A359R) (Drosophila melanogaster, UniProt P08510, A359R/DEL6-46/M356R); assay: in vitro; assay type: cell-based; settings: for EC50: read-out: c1/2 (half-maximal concentration); for pKa at 100 μM: Drosophila, functional pH dependence, read-out: Functional pKa (pH where half of the maximum G(V) shift was achieved); for G(V) shift: mean
Excerpt: (§1) Experiments were made with the Shaker H4 channel incapable of fast N-type inactivation due to a Δ6-46 deletion, referred to as the wt Shaker Kv channel. The 3R Shaker Kv channel with two additional positively charged arginines (M356R/A359R) in the extracellular end of S4, was also used.
(§2) For the Shaker channels, Bluescript II KS(+) plasmid was linearized with HindIII and synthesis of cRNA were made with the T7 mMessage mMachine kit (Ambion, Austin, Tex.). Point mutations around S4, on the Shaker Kv channel, were introduced using QuickChange Site-Directed Mutagenesis Kit (Agilent Technologies, Santa Clara, Calif.) and sequencing were used for verification.
(§3) 50 nl cRNA was injected into Xenopus laevis oocytes using a Nanoject injector (Drummond Scientific, Broomall, Pa.) and the oocytes were stored at 8° C. in a modified Barth's solution (MBS) before experiments (16° C., M-channel, 1-2 days). The MBS contained (in mM): 88 NaCl, 1 KCl, 2.4 NaHCO3, 15 HEPES, 0.33 Ca(NO3)2, 0.41 CaCl2), and 0.82 MgSO4, pH was adjusted to 7.5 by NaOH and the MBS was supplemented sodium pyruvate (2.5 mM). All animal experiments were approved by the Linkoping's local Animal Care and Use Committee.
(§4) Currents were measured 1-6 days after cRNA injection using the two-electrode voltage clamp technique (GeneClamp 500B amplifier, Axon instruments). Signals were low pass filtered at 5 kHz and digitized by a Digidata 1440A converter (Molecular Devices, Sunnyvale, Calif.). The amplifiers leak compensation was used and Clampex 10.2 software (Molecular Devices) was used to obtain data and create voltage protocols. The extracellular control solution contained (in mM): 1 KCl, 88 NaCl, 0.8 MgCl2, 0.4 CaCl2) and 15 HEPES. pH were adjusted with NaOH. Electrode pipettes were made from borosilicate glass capillaries (Harvard apparatus, Kent, UK) using a two stage electrode puller (Narishige, Tokyo, Japan) and resistance was between 0.5-2.0 MO once filled with 3 M KCl solution. In the voltage protocol for the wt and 3R Shaker channel, holding potential was set to −80 mV and steady-state currents were measured at voltages between −80 and +50 mV (wt Shaker Kv channel) or +70 mV (3R Shaker Kv channel), using 5 mV increments, 100 ms. […] Physiol. 143, 173-182 (2014). For the M-channel, holding potential was set to −100 mV, test-voltages were measured between −120 and +50 mV (10 mV increments for 2 s) and tail currents were measured at −30 mV.
(§5) Control solution was perfused to the recording chamber (0.5 ml/min) and the test solution was added manually with a syringe, in a volume large enough to replace the control solution manifold. Resin acids compounds were dissolved in DMSO (100 mM) and stored at −20° C. Just prior to experiment the compound was diluted to desired concentration in control solution. Recovery was measured after continuously perfusion of control solution, maximum 5 min. All recordings were made with the perfusion off. Experiments were carried out in room temperature (20-23° C.) and chemicals were purchased from Sigma Aldrich if not stated otherwise.
(§6) Currents were leak subtracted and steady-state currents were measured 80-86 ms after onset of the test voltages (Clampfit 10.5, Molecular Devices). K conductance, GK, was calculated using,
(§7) where IK is the steady-state current, V the absolute membrane voltage and VK the reversal potential for K ions (−80 mV), and the following Boltzmann curve was used to fit the data:
(§8) GK(V)=A/(1+exp((V1/2−V)/s)^n (2)
(§9) where A is the amplitude of the curve, V1/2 the midpoint when n=1, s the slope and n an exponent for better curve fitting, set to n=4. The voltage shift was calculated at 10% of maximal conductance in control curve.
(§10) To quantify the concentration dependence or pH dependence of the GK(V) shifts the following equation was used:
(§11) ΔVG(V)=ΔVMAX/(1+c1/2/c), (3)

[2] = target: T1, 3R Shaker Kv channel (M356R/A359R); settings: cited from earlier work
hKv7.2/Kv7.3 (M-channel) = target: T2, hKv7.2/Kv7.3 (M-channel) (Homo sapiens, UniProt O43525+O43526); assay: Two-electrode voltage clamp, G(V) shift on human M-channel expressed in Xenopus laevis oocytes; assay type: cell-based; settings: for EC50: read-out: c1/2 (half-maximal concentration); for G(V) shift: mean
T2 construct: expressed in transfected cells; host or cells: Xenopus laevis oocytes (cRNAs mixed 1:1)
Method: Experiments were also made with the human hKv7.2/Kv7.3, referred to as the M-channel. cRNAs were mixed in a 1:1 molar ratio before injection into oocytes. hKv7.2 [GenBank Acc. No. NM_004518]. hKv7.3 [GenBank Acc. No NM_004519].
as §3, §4, §5
For the M channel tail currents were measured 18 ms after onset and then plotted against the test voltage. The Boltzmann curve (Eq. 2) was used to fit data and the slope was set to shared value between control and test compound. V1/2 was used to calculate the GK(V) shift.
as §10, §11
where ΔVG(v) is the voltage shift, ΔVMAX is the amplitude of the curve, c the concentration, c1/2 the concentration at which half maximum response occur. For compounds with no pH dependence the data was fitted with a horizontal line, with the slope set to 0.

[3] = target: wt Shaker Kv channel (Shaker H4, Δ6-46) (Drosophila melanogaster, UniProt P08510, DEL6-46); assay: Two-electrode voltage clamp, G(V) shift on wt Shaker Kv channel expressed in Xenopus laevis oocytes; assay type: cell-based; settings: for G(V) shift: mean
Excerpt: as §1, §2, §3, §4, §5, §6, §7, §8, §9, §10, §11

R362Q Shaker Kv channel = R362Q Shaker Kv channel (Drosophila melanogaster, UniProt P08510, DEL6-46/R362Q); assay: G(V) shift on Shaker Kv channel S4 mutant R362Q compared with wt R362; assay type: cell-based; settings: 100 μM, pH 7.4, FIG. 9D
Method: as §2
Currents were measured 1-6 days after cRNA injection using the two-electrode voltage clamp technique (GeneClamp 500B amplifier, Axon instruments). Signals were low pass filtered at 5 kHz and digitized by a Digidata 1440A converter (Molecular Devices, Sunnyvale, Calif.). The amplifiers leak compensation was used and Clampex 10.2 software (Molecular Devices) was used to obtain data and create voltage protocols. The extracellular control solution contained (in mM): 1 KCl, 88 NaCl, 0.8 MgCl2, 0.4 CaCl2) and 15 HEPES. pH were adjusted with NaOH. […] In the voltage protocol for the wt and 3R Shaker channel, holding potential was set to −80 mV and steady-state currents were measured at voltages between −80 and +50 mV (wt Shaker Kv channel) or +70 mV (3R Shaker Kv channel), using 5 mV increments, 100 ms. […] For the M-channel, holding potential was set to −100 mV, test-voltages were measured between −120 and +50 mV (10 mV increments for 2 s) and tail currents were measured at −30 mV. […]

[4] = pH 7.4, concentration-response of G(V) shift
[5] = concentration-response of G(V) shift

wt Shaker Kv channel (Shaker H4, Δ6-46), sequence (P08510 other isoform, or with tags, fused parts or gaps DEL6-46): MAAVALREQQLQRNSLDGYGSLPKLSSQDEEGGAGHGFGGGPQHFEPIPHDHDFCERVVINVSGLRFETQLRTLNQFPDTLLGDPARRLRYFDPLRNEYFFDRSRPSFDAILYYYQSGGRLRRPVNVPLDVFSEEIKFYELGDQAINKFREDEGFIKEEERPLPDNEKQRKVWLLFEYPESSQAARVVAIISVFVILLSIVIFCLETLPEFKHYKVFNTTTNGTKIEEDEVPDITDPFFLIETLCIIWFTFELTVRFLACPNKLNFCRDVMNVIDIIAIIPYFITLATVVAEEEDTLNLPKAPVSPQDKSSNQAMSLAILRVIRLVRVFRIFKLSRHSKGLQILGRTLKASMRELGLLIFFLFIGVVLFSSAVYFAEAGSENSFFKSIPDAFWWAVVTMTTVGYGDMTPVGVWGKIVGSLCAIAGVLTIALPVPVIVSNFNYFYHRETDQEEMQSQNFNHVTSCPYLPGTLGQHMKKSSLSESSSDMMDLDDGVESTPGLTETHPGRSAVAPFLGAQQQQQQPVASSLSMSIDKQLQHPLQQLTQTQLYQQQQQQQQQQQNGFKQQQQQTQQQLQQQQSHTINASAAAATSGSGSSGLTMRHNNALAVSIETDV
T1 sequence (P08510 other isoform, or with tags, fused parts or gaps DEL6-46/M356R/A359R): as the sequence (P08510 other isoform, or with tags, fused parts or gaps DEL6-46) above, with M315R, A318R counted along it
R362Q Shaker Kv channel, sequence (P08510 other isoform, or with tags, fused parts or gaps DEL6-46/R362Q): as the sequence (P08510 other isoform, or with tags, fused parts or gaps DEL6-46) above, with R321Q counted along it

C[C@@]1(C(=O)O)CCC[C@]2(C)c3cc(Cl)c(Cl)c(Cl)c3CCC12 (some centres unmarked) [Wu50, reference compound]
Increase of affinity compared to DHAA (factor) ([1]; pH 7.4): 2.7 | Increase of amplitude/efficacy compared to DHAA (factor) ([1]; pH 7.4): 1.7 | EC50 ([2]; read-out: c1/2 (half-maximal concentration), pH 7.4, data from Ottosson et al. Sci. Rep. 5, 13278 (2015)): 37 µM and 36 µM

CC(C)c1ccc2c(c1)CC[C@H]1[C@](C)(COS(=O)(=O)O)CCC[C@]21C [Wu161, ((1R,4aS,10aR)-7-isopropyl-1,4a-dimethyl-1,2,3,4,4a,9,10,10a-octahydrophenanthren-1-yl)methyl Hydrogen Sulfate]
EC50 [1, 4]: 36 µM and 37 µM | EC50 (hKv7.2/Kv7.3 (M-channel); [5]): 41.8 µM and 42 µM | EC50 ([3]; pH 7.4, concentration-response of G(V) shift, read-out: c1/2 (half-maximal concentration)): 44 µM | Effect on R362Q compared with wt R362 (R362Q Shaker Kv channel): about the same effects

CC(C)c1ccc2c(c1)CC[C@H]1[C@](C)(C(=O)NCCS(=O)(=O)O)CCC[C@]21C [Wu154, 2-((1R,4aS,10aR)-7-isopropyl-1,4a-dimethyl-1,2,3,4,4a,9,10,10a-octahydrophenanthrene-1-carboxamido)ethane-1-sulfonic Acid]
pKa at 100 μM [1]: < 7.4 | G(V) shift ([1]; pH 7.4, 100 μM): −9.85 mV | G(V) shift (hKv7.2/Kv7.3 (M-channel); pH 7.4, 100 μM): −4.60 mV | G(V) shift ([3]; pH 7.4, 100 μM): −2.48 mV

CC(C)c1ccc2c(c1)CC[C@H]1[C@](C)(C(=O)O)CCC[C@]21C [DHAA, dehydroabietic acid]
pKa at 100 μM [1]: 7.2 | EC50 ([2]; pH 7.4, data from Ottosson et al. Sci. Rep. 5, 13278 (2015), read-out: c1/2 (half-maximal concentration)): 98 µM

C[C@@]1(COS(=O)(=O)O)CCC[C@]2(C)c3cc(Cl)c(Cl)c(Cl)c3CC[C@@H]12 [Wu181, ((1R,4aS,10aR)-6,7,8-trichloro-1,4a-dimethyl-2,3,4,9,10,10a-hexahydrophenanthrene-1-yl)methyl hydrogen sulfate]
Increase of affinity compared to DHAA (factor) ([1]; pH 7.4): 16 | Increase of affinity compared to Wu161 and Wu50 (factor) ([1]; pH 7.4): 6 | Increase of amplitude/efficacy compared to DHAA (factor) ([1]; pH 7.4): 2.0 | Increased G(V) shift at low concentrations compared to DHAA (factor) ([1]; pH 7.4): 32 | G(V) shift ([1]; pH 7.4, 3 μM): −21.3±2.9 mV | G(V) shift ([1]; pH 7.4, 10 μM): −31.90 mV | ΔVMAX (maximum shift) [1, 4]: −53.6 mV and −53.6±4.0 mV | EC50 [1, 4]: 6.1 µM | ΔVMAX (maximum shift) (hKv7.2/Kv7.3 (M-channel); [5]): −42.1 mV and −42.1±5.7 mV | EC50 (hKv7.2/Kv7.3 (M-channel); [5]): 12.4 µM | G(V) shift (hKv7.2/Kv7.3 (M-channel); pH 7.4, 10 μM): −18.9±2.4 mV and −18.90 mV

CC(C)c1ccc2c(c1)CC[C@H]1[C@](C)(C(=O)NCC(=O)O)CCC[C@]21C [Wu117, ((1R,4aS,10aR)-7-isopropyl-1,4a-dimethyl-1,2,3,4,4a,9,10,10a-octahydrophenanthrene-1-carbonyl)glycine]
G(V) shift ([1]; pH 7.4, 100 μM): −7.27 mV | G(V) shift ([1]; pH 10, 100 μM): −5.27 mV | G(V) shift ([3]; pH 10, 100 μM): −0.80 mV

CC(C)c1ccc2c(c1)CCC1[C@](C)(CC(=O)O)CCC[C@]21C (stereo partly drawn) [Wu180, 2-((1S,4aS)-7-isopropyl-1,4a-dimethyl-1,2,3,4,4a,9,10,10a-octahydrophenanthren-1-yl)acetic acid]
pKa at 100 μM [1]: 7.3 | G(V) shift ([1]; pH 5.5, 100 μM): 1.575 mV | G(V) shift ([1]; pH 7.4, 100 μM): −11.04 mV | G(V) shift ([1]; pH 10, 100 μM): −19.18 mV | G(V) shift ([3]; pH 10, 100 μM): −2.40 mV

CC(C)c1ccc2c(c1)CC[C@H]1[C@](C)(C(=O)NCCCC(=O)O)CCC[C@]21C [Wu149, 4-((1R,4aS,10aR)-7-isopropyl-1,4a-dimethyl-1,2,3,4,4a,9,10,10a-octahydrophenanthrene-1-carboxamido)butanoic Acid]
G(V) shift ([1]; pH 7.4, 100 μM): −4.80 mV | G(V) shift (example recording, normalized G(V) curves) ([1]; pH 7.4, 100 μM, single recording of FIG. 2C): −5.3 mV | G(V) shift ([1]; pH 10, 100 μM): −5.17 mV | G(V) shift ([3]; pH 10, 100 μM): −0.57 mV

CC(C)c1ccc2c(c1)CCC1[C@](C)(CCC(=O)O)CCC[C@]21C (stereo partly drawn) [Wu179, 3-((1S,4aS)-7-isopropyl-1,4a-dimethyl-1,2,3,4,4a,9,10,10a-octahydrophenanthren-1-yl)propanoic Acid]
pKa at 100 μM [1]: 7.5 | G(V) shift ([1]; pH 5.5, 100 μM): 2.80 mV | G(V) shift ([1]; pH 6.5, 100 μM): −3.23 mV | G(V) shift ([1]; pH 7.4, 100 μM): −10.43 mV | G(V) shift ([1]; pH 9, 100 μM): −16.63 mV | G(V) shift ([1]; pH 10, 100 μM): −22.83 mV | G(V) shift (hKv7.2/Kv7.3 (M-channel); pH 7.4, 100 μM): −6.68 mV | G(V) shift ([3]; pH 10, 100 μM): −3.83 mV
